Experimental data: patent US8859550B2, “Heterocyclic inhibitors of histamine receptors for the treatment of disease” (Kalypsys, Inc., priority 2011, dated 2014)
Read-outs that look alike come from different tables or passages of the source.

What was measured:
[1] = Gravimetric Vapor Sorption (GVS); assay type: physicochemical; conditions: 25° C.
Protocol: GVS: GVS experiments were conducted on a SurfaceMeasurement Systems DVS-HT at 25° C. The instrument was operated in step mode and the relative humidity (RH) was increased in 10% RH increments from 40% RH to 90% RH, then decreased from 90% RH to 0% RH, then increased a second time from 0% RH to 90% RH, then decreased from 90% RH to 0% RH. An extra step at 75% RH was included in each cycle. The mass equilibrium criterion was set at 0.005% change in mass over time (dm/dt). A minimum step time of 10 minutes and a maximum step time of 240 minutes were specified.

[2] = Equilibrium solubility study; assay type: physicochemical; conditions: for solubility thermodynamic: thermodynamic from solid, read-out: Filtrate Concentration (equilibrium solubility)
Protocol: Equilibrium solubility experiments were conducted for Compound 2 Monohydrochloride Form 1, Compound 2 Monomesylate Form 1 and Compound 2 Monocitrate Form 1 salts in water and pH-5 acetate buffer solution. The results of the equilibrium solubility study are summarized in Table 26 (where “a” indicates FTIR and PXRD spectra of both samples were distinctly different from the known forms of Compound 2 or Compound 2 Monocitrate salt Form 1).

[3] = Solubility in aqueous acetate buffer (80 mM); assay type: physicochemical; conditions: aqueous acetate buffer (80 mM) at pH3.5-4.5
[4] = Solid state form conversion on storage at ambient conditions; assay type: physicochemical; conditions: solid state, ambient conditions
Description: Two crystal forms of Compound 1 Mesylate Salt were obtained from these experiments. Compound 1 Mesylate Salt, Form 1 is a monomesylate reversible monohydrate solid state form that was obtained from ten of the twelve crystallization experiments conducted. […] Compound 1 Mesylate Salt Form 2 was obtained by slow evaporation of gummy solids at ambient temperature in two of twelve screening experiments. Compound 1 Mesylate Salt Form 2 was obtained as a mixture of Form 1 and Form 2 in one of twelve crystallization experiments.
A Compound 1 Mesylate salt form screen was conducted involving about 160 crystallization experiments in 48 solvents and aqueous mixtures was performed conducted as previously described (vide supra). Compound 1 Mesylate Salt Form 1, the reversible monohydrate initially discovered in during the crystallization experiments cited above, was obtained from a variety of solvents and crystallization conditions, including 25 slurry-ripening, six cooling, 16 evaporative and four vapor diffusion experiments. […] Samples of Compound 1, Mesylate Salt Forms 2-5 converted to Compound 1 Mesylate Salt Form 1 in solid state within one week at ambient conditions.

human H4 [5] = target: T1, human H4 (Homo sapiens, UniProt Q9H3N8); experiment: In vitro histamine receptor cell-based assay (aequorin bioluminescence), agonist mode; conditions: CHO-K1 cells expressing human H4; test compound alone, without added histamine
T1 construct: host or cells: CHO-K1
Protocol: (§1) The cell-based assays utilize an aequorin dependent bioluminescence signal. Doubly-transfected, stable CHO-K1 cell lines expressing human H4, or H1, mitochondrion-targeted aequorin, and (H4 only) human G protein Gα16 are obtained from Perkin-Elmer. Cells are maintained in F12 (Ham's) growth medium, containing 10% (vol./vol.) fetal bovine serum, penicillin (100 IU/mL), streptomycin (0.1 mg/mL), zeocin (0.25 mg/mL) and geneticin (0.40 mg/mL). Cell media components are from Invitrogen, Inc. One day prior to assay, the growth medium is replaced with the same, excluding zeocin and geneticin. In some assays, cells previously frozen at “ready to use density” are thawed and immediately available for loading with coelenterazine-h dye as described below. […]
(§2) Just before assay, the dye-loaded cells are diluted to 1.5×10^6 cells/mL (H4 receptor) or 0.75×10^6 cells/mL (H1 receptor) with additional assay medium. […] Assay plates are then transferred to a Lumilux bioluminescence plate reader (Perkin-Elmer) equipped with an automated 1536 disposable tip pipette. The pipette dispenses 3 μL/well of agonist (histamine, at twice the final concentration, where final concentration is a previously determined EC80) in assay medium, with concurrent bioluminescence detection. […] Efficacy is measured as a percentage of positive control activity.

[6] = In-situ salt formation screen (filtrate solubility); assay type: physicochemical; conditions: thermodynamic from solid, read-out: Filtrate Solubility
human H4 [7] = target: T1, human H4; experiment: In vitro histamine receptor cell-based assay (aequorin bioluminescence), antagonist mode; conditions: CHO-K1 cells expressing human H4, aequorin and Gα16; histamine at EC80
Protocol: as §1, §2

BALB/c mice = experiment: Model of allergic rhinitis in Balb/C mice, whole-body plethysmography; assay type: in vivo; parameters: key: +: increase in RF over positive control; −: no increase in RF over positive control; conditions: 0.1%, w/v, intranasal instillation 10 μl in each nostril 2.5 hours prior to OVA; day 4 (early phase)
Description: Female BALB/c mice, 6-12 weeks of age, were obtained from Jackson Laboratories (Bar Harbor, Me.). All experimental animals used in this work were under a protocol approved by the Institutional Animal Care and Use Committee of the National Jewish Medical and Research Center, Denver, Colo.
The assay protocol is similar to that described in Miyahara, S. et al. (2005), J Allergy Clin Immunol., 116:1020-1027. The role of the H4 receptor in this model has been validated [Shiraishi, Y. et al. (2009), J Allergy Clin Immunol., 123:556]. Briefly, mice received intraperitoneal injections of 20 μg ovalbumin (OVA, Grade V; Sigma-Aldrich, St. Louis, Mo.), previously emulsified in 2.25 mg of alum (AlumImuject; Pierce, Rockford, Ill.) in a total volume of 100 μL (sensitization phase). Injections occurred on days 0 and 14. […] On day 4 (early phase) and day 7 (late phase) after starting OVA challenges, respiratory frequency (RF) was measured in conscious animals by single chamber restrained whole-body plethysmography (WBP) [Buxco Research Systems, Troy, N.Y.]. […] After whole-body plethysmography on day 7, nasal airflow impedance was measured as described (RNA, see Methods section for Miyahara S. et al. [above] in the online supplemental material at the Journal of Allergy and Clinical Immunology: www.jacionline.org), using a custom-designed ventilator (Flexivent; Scireq, Montreal, Quebec, Canada). […]

T1 sequence (Q9H3N8 whole entry): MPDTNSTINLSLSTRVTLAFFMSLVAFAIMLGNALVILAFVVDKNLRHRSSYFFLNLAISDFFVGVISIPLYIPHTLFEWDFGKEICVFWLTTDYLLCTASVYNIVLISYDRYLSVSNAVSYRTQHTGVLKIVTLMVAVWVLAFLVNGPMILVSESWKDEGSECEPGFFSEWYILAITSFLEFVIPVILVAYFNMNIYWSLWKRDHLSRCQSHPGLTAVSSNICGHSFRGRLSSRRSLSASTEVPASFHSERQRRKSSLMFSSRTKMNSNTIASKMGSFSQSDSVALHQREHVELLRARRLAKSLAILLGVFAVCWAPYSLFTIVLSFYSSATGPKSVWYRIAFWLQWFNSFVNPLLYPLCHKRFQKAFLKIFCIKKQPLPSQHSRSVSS

Structure (SMILES): CN1CCN(c2ncc(-c3cccs3)n3nnnc23)CC1.CS(=O)(=O)O [Compound 1 Mesylate Salt Form 1, 8-(4-Methylpiperazin-1-yl)-5-(thiophen-2-yl)tetrazolo[1,5-a]pyrazine Mesylate Monohydrate]
- hygroscopicity (GVS) [1]: not hydroscopic
- GVS loss of water ([1]; below 20% RH): ~4.30%
- GVS water content ([1]; between 20-90% RH): ~4.3%
- solubility thermodynamic ([2]; 0.2 M acetate buffer, pH 5, aqueous buffer, 0.2M Acetate Buffer (pH5), final pH 4.17, residual solid Free Base): 58200 µg/mL
- Filtrate Concentration (equilibrium solubility) ([2]; Water, final pH 3.51, Dissolved, Mesylate Monohydrate): >100000 µg/mL
- solubility thermodynamic ([2]; water, pH 3.51, water, Water, final pH 3.51, Dissolved): > 100000 µg/mL
- solubility ([2]; water, aqueous): > 100000 µg/mL
- improvement in solubility over Compound 1 [3]: > 5 fold
- crystal form stability [4]: the most, and the only, stable crystal form

Structure (SMILES): CN1CCN(c2ncc(-c3cccs3)n3nnnc23)CC1 [Compound 1, 8-(4-Methylpiperazin-1-yl)-5-(thiophen-2-yl)tetrazolo[1,5-a]pyrazine]
- EC50 (human H4 [5]): > 100 µM
- solubility at 48 h ([6]; aqueous buffer, 0.1M aqueous Acetic Acid, filtrate pH 4.02, filtrant Free Base): 7990 µg/mL
- solubility at 48 h ([6]; aqueous buffer, 0.1M aqueous Citric Acid, filtrate pH 3.11, filtrant Salt): 1750 µg/mL
- solubility at 48 h ([6]; aqueous buffer, 0.1M aqueous L-Glutamic Acid, filtrate pH 4.28, filtrant Free Base): 6750 µg/mL
- solubility at 48 h ([6]; aqueous buffer, 0.1M aqueous L-Malic Acid, filtrate pH 4.15, filtrant Salt): 13400 µg/mL
- solubility at 48 h ([6]; aqueous buffer, 0.1M aqueous L-Tartaric Acid, filtrate pH 3.48, filtrant Salt): 8690 µg/mL
- solubility at 48 h ([6]; aqueous buffer, 0.1M aqueous Mesic Acid, filtrate pH 1.49, No Solids Isolated): 20000 µg/mL
- solubility at 48 h ([6]; aqueous buffer, 0.1M aqueous Phosphoric Acid, filtrate pH 1.76, filtrant Salt): 870 µg/mL
- solubility at 48 h ([6]; aqueous buffer, 0.1M aqueous Succinic Acid, filtrate pH 4.13, filtrant Free Base): 10400 µg/mL
- solubility at 48 h ([6]; aqueous buffer, 0.1M aqueous Sulfuric Acid, filtrate pH 1.39, filtrant Salt): 560 µg/mL
- solubility at 48 h ([6]; pH 4.2, aqueous buffer, 0.1M aqueous L-Aspartic Acid, filtrate pH 4.20, filtrant Free Base): 8640 µg/mL
- solubility at 48 h ([6]; simulated gastric fluid, 0.1M aqueous Hydrochloric Acid, filtrate pH 1.25, filtrant Salt): 990 µg/mL
- EC50 (human H4 [7]): ≤ 10 µM
- WBP, Day 4 (respiratory frequency, RF) (BALB/c mice): +

Structure (SMILES): CNC1CN(c2ncc(-c3cccs3)n3nnnc23)C1 [Compound 2, N-methyl-1-(5-(thiophen-2-yl)tetrazolo[1,5-a]pyrazin-8-yl)azetidin-3-amine]
- EC50 (human H4 [5]): > 100 µM
- solubility at 48 h ([6]; aqueous buffer, 0.1M aqueous Acetic Acid, filtrate pH 5.41, No Solids Isolated): > 24500 µg/mL
- solubility at 48 h ([6]; aqueous buffer, 0.1M aqueous Citric Acid, filtrate pH 3.69, filtrant Salt): 4270 µg/mL
- solubility at 48 h ([6]; aqueous buffer, 0.1M aqueous L-Aspartic Acid, filtrate pH 4.95, No Solids Isolated): > 18400 µg/mL
- solubility at 48 h ([6]; aqueous buffer, 0.1M aqueous L-Glutamic Acid, filtrate pH 5.46, filtrant Free Base): 10400 µg/mL
- solubility at 48 h ([6]; aqueous buffer, 0.1M aqueous L-Malic Acid, filtrate pH 5.13, No Solids Isolated): > 21100 µg/mL
- solubility at 48 h ([6]; aqueous buffer, 0.1M aqueous L-Tartaric Acid, filtrate pH 3.23, filtrant Salt): 1390 µg/mL
- solubility at 48 h ([6]; aqueous buffer, 0.1M aqueous Mesic Acid, filtrate pH 2.28, No Solids Isolated): > 25300 µg/mL
- solubility at 48 h ([6]; aqueous buffer, 0.1M aqueous Phosphoric Acid, filtrate pH 4.8, filtrant Salt): 740 µg/mL
- solubility at 48 h ([6]; aqueous buffer, 0.1M aqueous Succinic Acid, filtrate pH 4.75, filtrant Salt): 100 µg/mL
- solubility at 48 h ([6]; aqueous buffer, 0.1M aqueous Sulfuric Acid, filtrate pH 1.42, filtrant Salt): 610 µg/mL
- solubility at 48 h ([6]; simulated gastric fluid, 0.1M aqueous Hydrochloric Acid, filtrate pH 2.32, filtrant Salt): 15200 µg/mL
- EC50 (human H4 [7]): ≤ 10 µM
- WBP, Day 4 (respiratory frequency, RF) (BALB/c mice): +
